# Measured values taken from ChEMBL document CHEMBL1201862, “PubChem BioAssay data set” (2004).
# Activity calls are given as the source filed them.
# Columns and labels:
# [1] = molecular target: T1, Long-chain-fatty-acid--AMP ligase FadD28 (Mycobacterium tuberculosis, UniProt P9WQ59); experiment: Fluorescence polarization aasay to screen for inhibitors that compete for the binding of FadD28 to a bisubstrate Measured in Biochemical System Using Plate Reader - 2147-01_Inhibitor_Dose_CherryPick_Activity.; assay type: functional, Mycobacterium tuberculosis H37Rv
# T1 sequence (P9WQ59 whole entry): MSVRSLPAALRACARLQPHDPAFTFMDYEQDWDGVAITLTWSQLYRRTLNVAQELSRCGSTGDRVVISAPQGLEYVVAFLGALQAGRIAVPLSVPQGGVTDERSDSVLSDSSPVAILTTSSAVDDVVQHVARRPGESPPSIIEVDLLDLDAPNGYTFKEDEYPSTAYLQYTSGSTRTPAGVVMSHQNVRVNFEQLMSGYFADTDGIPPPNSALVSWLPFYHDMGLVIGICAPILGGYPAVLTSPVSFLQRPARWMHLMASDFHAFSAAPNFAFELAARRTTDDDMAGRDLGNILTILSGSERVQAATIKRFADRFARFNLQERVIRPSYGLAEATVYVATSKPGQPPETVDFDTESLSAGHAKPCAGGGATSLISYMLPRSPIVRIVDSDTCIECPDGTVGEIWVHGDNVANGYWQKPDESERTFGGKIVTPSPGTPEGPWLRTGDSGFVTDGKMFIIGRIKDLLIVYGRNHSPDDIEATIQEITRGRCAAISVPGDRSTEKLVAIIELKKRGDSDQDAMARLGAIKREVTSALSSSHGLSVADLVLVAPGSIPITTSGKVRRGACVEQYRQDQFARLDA
# [2] = molecular target: T2, Type-1 angiotensin II receptor (Homo sapiens, UniProt P30556); experiment: AT1 receptor antagonists, dose response, selectivity assay for APJ receptor antagonist project, cell-based, uHTS hits (AID 463214); assay type: functional;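 further: antagonist potency against angiotensin II stimulated AT1 response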
# T2 sequence (P30556 whole entry): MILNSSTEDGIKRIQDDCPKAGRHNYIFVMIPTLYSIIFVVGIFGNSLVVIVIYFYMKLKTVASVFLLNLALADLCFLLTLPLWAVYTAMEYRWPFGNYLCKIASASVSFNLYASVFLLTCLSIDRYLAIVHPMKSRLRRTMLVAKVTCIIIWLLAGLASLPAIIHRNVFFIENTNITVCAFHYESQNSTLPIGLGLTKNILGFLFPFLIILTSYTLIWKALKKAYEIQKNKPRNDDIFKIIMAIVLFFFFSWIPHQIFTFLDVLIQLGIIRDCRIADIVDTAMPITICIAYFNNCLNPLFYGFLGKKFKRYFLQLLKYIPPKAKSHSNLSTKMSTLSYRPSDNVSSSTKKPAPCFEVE
# [3] = molecular target: Beta-galactosidase (Escherichia coli, UniProt Q8VNN2); experiment: PubChem AID 485352; assay type: functional
# [4] = molecular target: T3, Adenosylmethionine-8-amino-7-oxononanoate aminotransferase (Mycobacterium tuberculosis, UniProt P9WQ81); experiment: Mycobacterium tuberculosis BioA enzyme inhibitor Measured in Biochemical System Using Plate Reader - 2163-02_Inhibitor_Dose_CherryPick_Activity.; assay type: functional, Mycobacterium tuberculosis UT205
# T3 sequence (P9WQ81 whole entry): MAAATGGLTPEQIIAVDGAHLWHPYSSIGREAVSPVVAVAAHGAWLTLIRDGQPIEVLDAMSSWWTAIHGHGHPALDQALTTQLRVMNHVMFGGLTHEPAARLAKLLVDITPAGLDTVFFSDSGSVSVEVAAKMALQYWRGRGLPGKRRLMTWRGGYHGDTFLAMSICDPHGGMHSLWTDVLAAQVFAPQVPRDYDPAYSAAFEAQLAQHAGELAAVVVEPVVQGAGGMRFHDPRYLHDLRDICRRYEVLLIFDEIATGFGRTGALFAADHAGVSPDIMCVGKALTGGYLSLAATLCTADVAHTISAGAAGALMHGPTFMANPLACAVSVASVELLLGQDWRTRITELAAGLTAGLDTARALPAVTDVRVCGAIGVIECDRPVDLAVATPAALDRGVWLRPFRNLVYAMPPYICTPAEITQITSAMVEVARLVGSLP
# [5] = tested on: P388; experiment: cells; assay type: functional; conditions: Mus musculus
# [6] = Fluorescence-based cell-based high throughput dose response assay for inhibitors of the interaction of nucleotide-binding oligomerization domain containing 2 (NOD2) and the receptor-interacting serine-threonine kinase 2 (RIPK2).; assay type: functional; conditions: Homo sapiens
# [7] = tested on: SN12K1; experiment: cells; assay type: functional; conditions: Homo sapiens
# [8] = tested on: P388/ADR; experiment: cells; assay type: functional; conditions: Mus musculus
# [9] = molecular target: Steroidogenic factor 1 (Homo sapiens, UniProt Q13285); experiment: Counterscreen for inverse agonists of the liver receptor homolog-1 (LRH-1; NR5A2): Luminescence-based cell-based high throughput dose response assay to identify inverse agonists of the Steroidogenic Factor 1 Nuclear Receptor (SF1; NR5A1).; assay type: functional
# [10] = molecular target: Nuclear receptor subfamily 5 group A member 2 (Homo sapiens, UniProt O00482); assay type: functional, cell-based;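 further: HEK293T cells transfected with LRH-1 and a StAR promoter luciferase reporter; potency for inhibitors that lower LRH-1 driven reporter light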
# [11] = molecular target: T4, Ubiquitin-conjugating enzyme E2 N (Homo sapiens, UniProt P61088); assay type: functional
# T4 sequence (P61088 whole entry): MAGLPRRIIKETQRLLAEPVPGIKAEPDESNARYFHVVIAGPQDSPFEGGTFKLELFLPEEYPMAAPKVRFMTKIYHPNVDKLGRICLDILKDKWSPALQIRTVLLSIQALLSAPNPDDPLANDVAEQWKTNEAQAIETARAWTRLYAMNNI
# [12] = tested on: HEK293; experiment: optical interference in Abeta FP readout, dose response, artefact control for IDE activator project, biochemical, fluorescence polarization (AID 588442); assay type: functional, cell-based; conditions: Homo sapiens
# [13] = molecular target: T5, Insulin-degrading enzyme (Homo sapiens, UniProt P14735); experiment: activators of endogenous IDE in HEK cells, dose response, cell-based, fluorescence polarization (AID 588439); assay type: functional
# T5 sequence (P14735 whole entry): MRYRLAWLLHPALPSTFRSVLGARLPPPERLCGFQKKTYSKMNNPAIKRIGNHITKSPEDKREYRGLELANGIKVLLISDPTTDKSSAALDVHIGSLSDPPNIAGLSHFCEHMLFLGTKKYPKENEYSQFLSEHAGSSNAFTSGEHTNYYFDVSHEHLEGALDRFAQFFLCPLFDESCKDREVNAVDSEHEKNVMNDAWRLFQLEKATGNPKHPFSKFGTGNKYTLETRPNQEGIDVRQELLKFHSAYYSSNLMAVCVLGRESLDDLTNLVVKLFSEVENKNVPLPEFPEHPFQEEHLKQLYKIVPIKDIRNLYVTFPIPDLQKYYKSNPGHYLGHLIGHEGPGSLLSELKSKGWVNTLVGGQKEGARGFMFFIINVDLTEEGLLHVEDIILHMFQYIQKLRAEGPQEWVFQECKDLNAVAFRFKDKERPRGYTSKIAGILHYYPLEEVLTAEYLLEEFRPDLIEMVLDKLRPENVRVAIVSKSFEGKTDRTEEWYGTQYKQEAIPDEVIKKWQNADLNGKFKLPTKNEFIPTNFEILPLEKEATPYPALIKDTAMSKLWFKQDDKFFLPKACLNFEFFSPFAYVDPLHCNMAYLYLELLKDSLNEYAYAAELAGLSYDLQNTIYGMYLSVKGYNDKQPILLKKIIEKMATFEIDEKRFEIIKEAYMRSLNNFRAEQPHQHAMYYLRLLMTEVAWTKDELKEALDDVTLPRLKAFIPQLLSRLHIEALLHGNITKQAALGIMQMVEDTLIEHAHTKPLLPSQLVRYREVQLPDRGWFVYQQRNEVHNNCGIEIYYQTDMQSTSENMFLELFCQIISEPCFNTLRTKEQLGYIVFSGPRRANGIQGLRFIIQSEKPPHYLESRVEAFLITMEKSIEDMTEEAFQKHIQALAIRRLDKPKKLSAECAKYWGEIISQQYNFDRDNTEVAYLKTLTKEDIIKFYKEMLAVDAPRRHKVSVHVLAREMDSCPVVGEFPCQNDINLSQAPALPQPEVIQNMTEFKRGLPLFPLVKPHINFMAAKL
# [14] = molecular target: T6, Bcl-2-related protein A1 (Mus musculus, UniProt Q07440); assay type: functional;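 further: confirmatory dose–response counterscreen on Bfl-1, used to check hits from a UBC13 polyubiquitin inhibitor campaign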
# T6 sequence (Q07440 whole entry): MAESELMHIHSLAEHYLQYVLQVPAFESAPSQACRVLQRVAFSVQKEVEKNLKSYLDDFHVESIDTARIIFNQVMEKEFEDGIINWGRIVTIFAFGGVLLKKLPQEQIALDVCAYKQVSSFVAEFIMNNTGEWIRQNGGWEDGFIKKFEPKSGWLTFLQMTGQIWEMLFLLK
# [15] = tested on: HEK293; experiment: HEK cell cytotoxicity by LDH release, dose response, cytotoxicity control for IDE activator project, fluorescence, HEK cells (AID 588440); assay type: functional, cell-based, Homo sapiens; conditions: Homo sapiens, HEK293;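 further: cytotoxicity by LDH release measuring loss of membrane integrity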
# [16] = molecular target: T5, Insulin-degrading enzyme; experiment: activators of recombinant IDE enzyme, dose response, counter-screen for IDE activator project, biochemical, fluorescence polarization (AID 588681)
# [17] = molecular target: T4, Ubiquitin-conjugating enzyme E2 N; assay type: functional; remark: listed apart in the source
# [18] = molecular target: T7, Alkaline phosphatase, tissue-nonspecific isozyme (Homo sapiens, UniProt P05186); experiment: TNAP enzyme inhibition by screening hits, dose response, selectivity assay for mouse IAP inhibitor project, biochemical, human TNAP, uHTS hits (AID 488906); assay type: functional
# T7 sequence (P05186 whole entry): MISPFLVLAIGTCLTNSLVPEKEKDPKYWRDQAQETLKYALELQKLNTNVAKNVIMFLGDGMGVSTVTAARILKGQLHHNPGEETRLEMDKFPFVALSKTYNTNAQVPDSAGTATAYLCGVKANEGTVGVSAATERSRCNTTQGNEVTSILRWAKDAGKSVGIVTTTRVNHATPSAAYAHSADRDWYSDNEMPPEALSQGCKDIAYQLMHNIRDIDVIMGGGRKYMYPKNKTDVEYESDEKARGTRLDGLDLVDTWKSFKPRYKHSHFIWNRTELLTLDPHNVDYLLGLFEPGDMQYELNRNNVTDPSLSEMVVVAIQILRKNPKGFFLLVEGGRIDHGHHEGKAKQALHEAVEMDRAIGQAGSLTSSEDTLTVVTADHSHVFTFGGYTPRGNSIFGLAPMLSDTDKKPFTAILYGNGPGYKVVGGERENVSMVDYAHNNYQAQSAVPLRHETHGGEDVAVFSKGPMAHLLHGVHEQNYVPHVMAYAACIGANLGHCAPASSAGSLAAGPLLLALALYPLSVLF
# [19] = HEp-2 cell cytotoxicity, dose response, cytotoxicity control for RSV inhibitor project, HTS (AID 2410); assay type: functional; conditions: human respiratory syncytial virus
# [20] = molecular target: Intestinal-type alkaline phosphatase (Homo sapiens, UniProt P09923); experiment: inhibition of human intestinal alkaline phosphatase – biochemical, dose response (AID 488876); assay type: functional
# [21] = molecular target: Intestinal-type alkaline phosphatase (Mus musculus, UniProt P24822); experiment: PubChem AID 488785; assay type: functional
# Chain of Intestinal-type alkaline phosphatase (Mus musculus, UniProt P24822) (P24822 whole entry): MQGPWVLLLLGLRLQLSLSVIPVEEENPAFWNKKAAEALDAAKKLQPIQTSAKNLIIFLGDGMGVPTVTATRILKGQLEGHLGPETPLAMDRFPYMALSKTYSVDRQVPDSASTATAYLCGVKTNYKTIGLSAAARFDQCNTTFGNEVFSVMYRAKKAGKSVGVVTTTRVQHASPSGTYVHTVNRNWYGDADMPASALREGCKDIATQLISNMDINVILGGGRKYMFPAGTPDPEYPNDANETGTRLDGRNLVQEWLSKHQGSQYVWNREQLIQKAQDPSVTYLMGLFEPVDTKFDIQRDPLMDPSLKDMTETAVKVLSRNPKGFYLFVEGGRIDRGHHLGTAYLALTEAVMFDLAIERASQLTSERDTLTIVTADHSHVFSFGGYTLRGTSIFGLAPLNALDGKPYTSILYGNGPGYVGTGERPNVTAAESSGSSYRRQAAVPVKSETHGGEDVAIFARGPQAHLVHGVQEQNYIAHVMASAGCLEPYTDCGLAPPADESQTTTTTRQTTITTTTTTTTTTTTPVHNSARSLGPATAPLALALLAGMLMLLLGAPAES
# Chain of Steroidogenic factor 1 (Q13285 whole entry): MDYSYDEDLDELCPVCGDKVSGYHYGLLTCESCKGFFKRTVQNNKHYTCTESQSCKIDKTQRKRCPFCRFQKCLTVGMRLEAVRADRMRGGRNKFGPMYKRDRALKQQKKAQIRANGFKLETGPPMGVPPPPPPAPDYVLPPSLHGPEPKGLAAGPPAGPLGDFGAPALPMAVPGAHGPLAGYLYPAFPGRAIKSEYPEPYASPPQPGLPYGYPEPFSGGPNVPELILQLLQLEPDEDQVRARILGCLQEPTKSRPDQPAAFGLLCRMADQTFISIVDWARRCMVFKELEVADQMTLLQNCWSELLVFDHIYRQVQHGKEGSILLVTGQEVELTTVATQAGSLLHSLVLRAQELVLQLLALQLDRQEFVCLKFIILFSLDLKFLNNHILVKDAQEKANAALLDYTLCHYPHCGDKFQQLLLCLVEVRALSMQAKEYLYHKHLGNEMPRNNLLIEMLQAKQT
# Chain of Nuclear receptor subfamily 5 group A member 2 (O00482 whole entry): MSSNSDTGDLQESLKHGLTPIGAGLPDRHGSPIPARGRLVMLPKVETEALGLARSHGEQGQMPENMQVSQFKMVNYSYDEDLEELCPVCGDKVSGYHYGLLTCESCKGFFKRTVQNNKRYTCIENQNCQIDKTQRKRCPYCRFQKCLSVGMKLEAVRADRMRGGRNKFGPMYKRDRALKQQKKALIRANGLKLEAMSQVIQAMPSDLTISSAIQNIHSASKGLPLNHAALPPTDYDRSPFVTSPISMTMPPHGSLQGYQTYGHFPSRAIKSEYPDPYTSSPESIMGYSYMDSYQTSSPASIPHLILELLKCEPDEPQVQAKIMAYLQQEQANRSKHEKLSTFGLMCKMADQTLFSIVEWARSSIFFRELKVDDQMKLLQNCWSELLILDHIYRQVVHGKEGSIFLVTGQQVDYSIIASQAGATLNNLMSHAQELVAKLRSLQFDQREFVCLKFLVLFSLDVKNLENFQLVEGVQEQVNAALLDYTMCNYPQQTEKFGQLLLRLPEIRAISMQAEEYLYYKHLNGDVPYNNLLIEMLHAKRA
# Chain of Beta-galactosidase (Q8VNN2 whole entry): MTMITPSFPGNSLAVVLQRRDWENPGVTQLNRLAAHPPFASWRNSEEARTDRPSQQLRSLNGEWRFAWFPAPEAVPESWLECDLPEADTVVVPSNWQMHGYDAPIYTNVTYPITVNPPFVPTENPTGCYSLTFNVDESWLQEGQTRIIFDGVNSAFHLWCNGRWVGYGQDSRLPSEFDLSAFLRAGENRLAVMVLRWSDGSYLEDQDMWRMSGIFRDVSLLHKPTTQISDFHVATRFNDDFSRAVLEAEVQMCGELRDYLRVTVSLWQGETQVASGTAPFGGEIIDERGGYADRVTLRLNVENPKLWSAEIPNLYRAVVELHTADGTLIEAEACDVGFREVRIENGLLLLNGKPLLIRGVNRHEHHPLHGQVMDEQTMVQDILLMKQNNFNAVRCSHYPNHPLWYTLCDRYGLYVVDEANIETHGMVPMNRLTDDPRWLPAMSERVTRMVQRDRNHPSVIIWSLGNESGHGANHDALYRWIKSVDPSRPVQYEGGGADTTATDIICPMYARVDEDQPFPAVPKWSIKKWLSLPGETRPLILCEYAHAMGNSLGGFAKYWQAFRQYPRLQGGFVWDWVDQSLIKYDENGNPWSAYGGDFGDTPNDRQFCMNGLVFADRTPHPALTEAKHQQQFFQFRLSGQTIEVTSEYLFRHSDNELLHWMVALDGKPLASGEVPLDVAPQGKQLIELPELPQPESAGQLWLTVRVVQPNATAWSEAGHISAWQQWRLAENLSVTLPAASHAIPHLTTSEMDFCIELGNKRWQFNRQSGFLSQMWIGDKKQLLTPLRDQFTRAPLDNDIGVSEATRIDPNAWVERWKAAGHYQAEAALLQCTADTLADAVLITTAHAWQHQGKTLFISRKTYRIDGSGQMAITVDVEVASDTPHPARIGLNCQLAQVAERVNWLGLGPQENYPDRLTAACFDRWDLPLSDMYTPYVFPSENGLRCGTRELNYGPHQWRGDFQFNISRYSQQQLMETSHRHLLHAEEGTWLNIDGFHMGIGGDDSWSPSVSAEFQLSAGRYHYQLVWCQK
# Chain of Intestinal-type alkaline phosphatase (Homo sapiens, UniProt P09923) (P09923 whole entry): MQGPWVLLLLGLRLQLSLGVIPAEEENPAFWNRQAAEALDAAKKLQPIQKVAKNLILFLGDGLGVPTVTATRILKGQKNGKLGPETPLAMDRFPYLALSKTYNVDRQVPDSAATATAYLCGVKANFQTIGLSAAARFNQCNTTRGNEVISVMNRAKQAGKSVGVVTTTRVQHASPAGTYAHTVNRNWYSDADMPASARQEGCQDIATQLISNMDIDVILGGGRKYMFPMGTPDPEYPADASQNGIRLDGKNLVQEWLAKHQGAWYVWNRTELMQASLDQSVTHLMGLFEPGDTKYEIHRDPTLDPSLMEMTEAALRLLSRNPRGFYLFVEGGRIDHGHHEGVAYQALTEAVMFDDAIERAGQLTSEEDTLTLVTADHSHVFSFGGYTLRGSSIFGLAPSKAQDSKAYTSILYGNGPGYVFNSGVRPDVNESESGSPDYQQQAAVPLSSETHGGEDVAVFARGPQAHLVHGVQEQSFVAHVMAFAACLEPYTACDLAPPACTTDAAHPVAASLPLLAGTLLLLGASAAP
smiles,measurement,setting,value
O=C(NNC(=S)Nc1ccc(Cl)cc1Cl)c1ccc(N2CCOCC2)c([N+](=O)[O-])c1,AC50,[1],40.2 µM (active)
same,IC50,[2],> 40 µM (not active)
same,EC50,[3],> 40 µM (inactive)
COc1ccc(CCN(C)c2ccc(C(N)=O)cc2[N+](=O)[O-])cc1OC,AC50,[4],5.7 µM (active)
COc1ccc(NC(=O)c2cnc(C)cn2)cc1-n1cnnn1,AC50,[4],0.733 µM (active)
COC(=O)c1ccc(NC(S)=NC2c3ccccc3CC2O)cc1 (configuration not stated),AC50,[1],26.6 µM (active)
Cc1ccc(NC(=O)CSCC(=O)Nc2sccc2C#N)cc1,AC50,[1],18.9 µM (active)
CC(=O)OC1C(O)C(C)OC(OC2C(OC(=O)C3CCC4C(C3)OC3(CC(OC(=O)/C=C/c5ccccc5)C(C)CO3)C43CO3)OC(C)C(O)C2OC(C)=O)C1O (configuration not stated),GI50,[5],0.0895 µM (active)
same,IC50,[6],49.8 µM (inactive)
same,GI50,[7],0.0172 µM (active)
same,GI50,[8],> 1.75 µM (inactive)
COc1ccc(NC(=O)COC(=O)c2cc(S(=O)(=O)N3CCCC3)ccc2O)cc1,IC50,[9],11.2 µM (inactive)
same,IC50,[10],35.9 µM (inactive)
C#CCOCCOCCOCCNc1nc(N2CCN(C(=O)CCCCCCCCCCNC(=O)[C@H](CCCCN)n3cc(C)nn3)CC2)nc(N2CCN(C(=O)CCCCCCCCCCNC(=O)[C@@H]([C@H](C)O)n3cc(C)nn3)CC2)n1,IC50,[11],11.1 µM (active)
same,EC50,[12],> 54.7 µM (inactive)
same,EC50,[13],> 54.7 µM (inactive)
same,IC50,[14],> 20 µM (inactive)
same,IC50,[15],11.4 µM (inactive)
same,EC50,[16],> 54.7 µM (inactive)
same,IC50,[17],6.61 µM (active)
C#CCOCCOCCOCCNc1nc(N2CCN(C(=O)CCCCCCCCCCNC(=O)[C@@H](CCSC)n3cc(CCO)nn3)CC2)nc(N2CCN(C(=O)CCCCCCCCCCNC(=O)[C@H]([C@@H](C)CC)n3cc(CCCCN=C(N)N)nn3)CC2)n1,IC50,[18],58.7 µM (active)
same,IC50,[11],5.82 µM (active)
same,EC50,[12],> 56 µM (inactive)
same,EC50,[13],> 2.03 µM (active)
same,CC50,[19],16 µM (active)
same,IC50,[14],5.51 µM (active)
same,IC50,[15],4.44 µM (active)
same,IC50,[20],> 100 µM (inactive)
same,EC50,[16],2.36 µM (active)
same,IC50,[21],1.66 µM (active)
same,IC50,[17],3.81 µM (active)
COc1cccc(-c2ccc3c(c2)[C@H]2[C@H](CCN2C(=O)C2CCC2)[C@@H](CO)N3)c1,AC50,[4],7.13 µM (active)
